Reference: the supplement of paper PMC10307832

Columns and labels:
Assay in all cases: relative viability (nuclei count vs DMSO), 5 days (fraction); higher = more cells survive
Lapatinib + Alpelisib = compound: CS(=O)(=O)CCNCc1ccc(-c2ccc3ncnc(Nc4ccc(OCc5cccc(F)c5)c(Cl)c4)c3c2)o1 [Lapatinib] + Cc1nc(NC(=O)N2CCC[C@H]2C(N)=O)sc1-c1ccnc(C(C)(C)C(F)(F)F)c1 [Alpelisib] (partner 2 µM)
Procedure, shortened: (§1)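 After 5 days of treatment, lung cancer cells in 1536-well plates were fixed and stained in a single step (final 0.05% Triton X-100, 1% formaldehyde, 1 ug/ml Hoechst) and their nuclei counted on 4× images. Treatment had been applied by pin tool the day after seeding as one drug alone or as a fixed anchor-drug dose with five library-drug doses (not always all listed) in √10 steps. Relative viability is the nuclei count of treated wells divided by that of vehicle wells, and values are medians of duplicate plates.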

Lapatinib + Trametinib = compound: CS(=O)(=O)CCNCc1ccc(-c2ccc3ncnc(Nc4ccc(OCc5cccc(F)c5)c(Cl)c4)c3c2)o1 [Lapatinib] + CC(=O)Nc1cccc(-n2c(=O)n(C3CC3)c(=O)c3c(Nc4ccc(I)cc4F)n(C)c(=O)c(C)c32)c1 [Trametinib] (partner 0.02 µM)
Procedure, shortened: as §1

Wnt-C59 + Lapatinib = compound: CC1=NC=CC(=C1)C2=CC=C(C=C2)CC(=O)NC3=CC=C(C=C3)C4=CN=CC=C4 [Wnt-C59] + CS(=O)(=O)CCNCc1ccc(-c2ccc3ncnc(Nc4ccc(OCc5cccc(F)c5)c(Cl)c4)c3c2)o1 [Lapatinib] (partner 2 µM)
Procedure, shortened: as §1

Lapatinib + Luminespib = compound: CS(=O)(=O)CCNCc1ccc(-c2ccc3ncnc(Nc4ccc(OCc5cccc(F)c5)c(Cl)c4)c3c2)o1 [Lapatinib] + CCNC(=O)c1noc(-c2cc(C(C)C)c(O)cc2O)c1-c1ccc(CN2CCOCC2)cc1 [Luminespib] (partner 0.01 µM)
Procedure, shortened: as §1

UMC-11 gave a relative viability (Lapatinib + Alpelisib; first compound 0.02 µM) of 0.861, a relative viability (Lapatinib + Alpelisib; first compound 0.06325 µM) of 0.933 and a relative viability (Lapatinib + Alpelisib; first compound 0.2 µM) of 0.986. It also gave a relative viability (Lapatinib + Alpelisib; first compound 0.6325 µM) of 0.887, a relative viability (Lapatinib + Alpelisib; first compound 2 µM) of 1.09 and a relative viability (Lapatinib + Trametinib; first compound 0.02 µM) of 0.293. It also gave a relative viability (Lapatinib + Trametinib; first compound 0.06325 µM) of 0.617, a relative viability (Lapatinib + Trametinib; first compound 0.2 µM) of 0.69 and a relative viability (Lapatinib + Trametinib; first compound 0.6325 µM) of 0.76. It also gave a relative viability (Lapatinib + Trametinib; first compound 2 µM) of 0.676, a relative viability (Wnt-C59 + Lapatinib; first compound 0.001 µM) of 0.911 and a relative viability (Wnt-C59 + Lapatinib; first compound 0.01 µM) of 0.851. The relative viability (Wnt-C59 + Lapatinib; first compound 0.03162 µM) was 1.03, the relative viability (Wnt-C59 + Lapatinib; first compound 0.1 µM) was 0.749 and the relative viability (Lapatinib + Luminespib; first compound 0.02 µM) was 0.887. The relative viability (Lapatinib + Luminespib; first compound 0.06325 µM) was 0.957, the relative viability (Lapatinib + Luminespib; first compound 0.2 µM) was 0.976 and the relative viability (Lapatinib + Luminespib; first compound 0.6325 µM) was 0.901. The relative viability (Lapatinib + Luminespib; first compound 2 µM) was 1.02.
